This is an account of results in patent US20260200928A1, “THERAPEUTIC COMPOUNDS” (Sanofi, priority 2022, published 2026).

SMILES strings stand for the structures.

By IC50 is commonly meant the point on the concentration scale where inhibition reaches its midpoint. High values mean lower potency, low ones higher potency.

This assay concerns the target T1, human IL-17A (Homo sapiens, UniProt Q16552).
T1 construct: purchased R&D Systems 7955-IL/CF
T1 sequence (Q16552 24-155): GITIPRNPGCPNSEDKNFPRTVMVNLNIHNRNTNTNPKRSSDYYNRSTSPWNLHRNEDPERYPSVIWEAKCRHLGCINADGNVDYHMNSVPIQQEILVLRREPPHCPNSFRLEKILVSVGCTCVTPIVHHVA
The assay is described as follows: IL-17A AlphaLISA competition assay (block of IL-17A binding to its receptor IL-17RA). The following applies: mean IC50 (n≥2), block of IL-17A binding to IL-17RA. The gist of the method:
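Bead-based AlphaLISA competition in PBS with 0.05% Tween-20 and 0.1% BSA: compound first meets human IL-17A (7.5 nM stock) for 30 min, then IL-17RA/Fc (5 nM stock) for 90 min, all at room temperature, before acceptor/donor bead capture. IC50 fitted 4-parameter, DMSO and 4 μM reference inhibitor as controls; at least duplicate.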
Take `CC(C)(OC[C@H](NC(=O)c1nonc1C1CC1)C(=O)Nc1cc(CN2C[C@@H](C(F)(F)F)NC2=O)ccn1)C(F)(F)F` [Example 274, 4-cyclopropyl-N-((S)-1-oxo-1-((4-(((S)-2-oxo-4-(trifluoromethyl)imidazolidin-1-yl)methyl)pyridin-2-yl)amino)-3-((1,1,1-trifluoro-2-methylpropan-2-yl)oxy)propan-2-yl)-1,2,5-oxadiazole-3-carboxamide]: the IC50 was 75 nM.
Then `Cn1nccc1C(=O)N[C@@H](COC(C)(C)C(F)(F)F)C(=O)Nc1cc(CN2C[C@@H](C(F)(F)F)NC2=O)ccn1` [Example 275, 1-methyl-N-((S)-1-oxo-1-((4-(((S)-2-oxo-4-(trifluoromethyl)imidazolidin-1-yl)methyl)pyridin-2-yl)amino)-3-((1,1,1-trifluoro-2-methylpropan-2-yl)oxy)propan-2-yl)-1H-pyrazole-5-carboxamide], with 946 nM; and `Cc1nonc1C(=O)NC(C(=O)Nc1cc(CN2CC(C(F)(F)F)NC2=O)ccn1)C1CCC(F)CC1` [Example 291, N-((S)-1-((1r,4S)-4-fluorocyclohexyl)-2-oxo-2-((4-(((S)-2-oxo-4-(trifluoromethyl)imidazolidin-1-yl)methyl)pyridin-2-yl)amino)ethyl)-4-methyl-1,2,5-oxadiazole-3-carboxamide], with 619 nM.
`O=C(NC(C(=O)Nc1cc(CN2CC(C(F)(F)F)NC2=O)ccn1)C1CCC(F)CC1)c1nonc1C1CC1` [Example 292, 4-cyclopropyl-N-((S)-1-((1r,4S)-4-fluorocyclohexyl)-2-oxo-2-((4-(((S)-2-oxo-4-(trifluoromethyl)imidazolidin-1-yl)methyl)pyridin-2-yl)amino)ethyl)-1,2,5-oxadiazole-3-carboxamide] came in with an IC50 of 104 nM.
With `CCn1nccc1C(=O)NC(C(=O)Nc1cc(CN2CC(C(F)(F)F)NC2=O)ccn1)C1CCC(F)CC1` [Example 293, 1-ethyl-N-((S)-1-((1r,4S)-4-fluorocyclohexyl)-2-oxo-2-((4-(((S)-2-oxo-4-(trifluoromethyl)imidazolidin-1-yl)methyl)pyridin-2-yl)amino)ethyl)-1H-pyrazole-5-carboxamide] the figure was 153 nM.
Then `Cn1nccc1C(=O)NC(C(=O)Nc1cc(CN2CC(C(F)(F)F)NC2=O)ccn1)C1CCC(F)CC1` [Example 294, N-((S)-1-((1r,4S)-4-fluorocyclohexyl)-2-oxo-2-((4-(((S)-2-oxo-4-(trifluoromethyl)imidazolidin-1-yl)methyl)pyridin-2-yl)amino)ethyl)-1-methyl-1H-pyrazole-5-carboxamide], with 374 nM; and `CCc1nocc1C(=O)N[C@H](C(=O)Nc1cc([C@@H](COC)N2C[C@@H](C(F)(F)F)NC2=O)ccn1)C1CCC(C(F)(F)F)CC1` (stereo partly drawn) [Example 300, 3-ethyl-N-((1S)-2-((4-((S)-2-methoxy-1-((S)-2-oxo-4-(trifluoromethyl)-imidazolidin-1-yl)ethyl)pyridin-2-yl)amino)-2-oxo-1-(4-(trifluoromethyl)-cyclohexyl)ethyl)isoxazole-4-carboxamide], with 39 nM.
With `CCn1nccc1C(=O)N[C@H](C(=O)Nc1cc([C@@H](COC)N2C[C@@H](C(F)(F)F)NC2=O)ccn1)C1CCC(C(F)(F)F)CC1` (stereo partly drawn) [Example 301, 1-ethyl-N-((1S)-2-((4-((S)-2-methoxy-1-((S)-2-oxo-4-(trifluoromethyl)imidazolidin-1-yl)ethyl)pyridin-2-yl)amino)-2-oxo-1-(4-(trifluoromethyl)-cyclohexyl)ethyl)-1H-pyrazole-5-carboxamide] the figure was 38 nM; with `COC[C@H](c1ccnc(NC(=O)[C@@H](NC(=O)c2ccnn2C)C2CCC(C(F)(F)F)CC2)c1)N1C[C@@H](C(F)(F)F)NC1=O` (stereo partly drawn) [Example 302, N-((1S)-2-((4-((S)-2-methoxy-1-((S)-2-oxo-4-(trifluoromethyl)imidazolidin-1-yl)ethyl)pyridin-2-yl)amino)-2-oxo-1-(4-(trifluoromethyl)-cyclohexyl)ethyl)-1-methyl-1H-pyrazole-5-carboxamide], 44 nM.
As to `CCn1nccc1C(=O)N[C@H](C(=O)Nc1cc([C@@H](COC)N2C[C@@H](C(F)(F)F)NC2=O)ccn1)C1CCC(Cl)CC1` (stereo partly drawn) [Example 310, N-((1S)-1-(4-chlorocyclohexyl)-2-((4-((S)-2-methoxy-1-((S)-2-oxo-4-(trifluoromethyl)imidazolidin-1-yl)ethyl)pyridin-2-yl)amino)-2-oxoethyl)-1-ethyl-1H-pyrazole-5-carboxamide], the IC50 was determined as 71 nM. Against the preceding compound, the IC50 is about 1.6-fold higher.
Then `COC[C@H](c1ccnc(NC(=O)[C@@H](NC(=O)c2ccnn2C(C)C)C2CCC(Cl)CC2)c1)N1C[C@@H](C(F)(F)F)NC1=O` (stereo partly drawn) [Example 312, N-((1S)-1-(4-chlorocyclohexyl)-2-((4-((S)-2-methoxy-1-((S)-2-oxo-4-(trifluoromethyl)imidazolidin-1-yl)ethyl)pyridin-2-yl)amino)-2-oxoethyl)-1-isopropyl-1H-pyrazole-5-carboxamide], with 121 nM.
Then `COC[C@H](c1ccnc(NC(=O)[C@@H](NC(=O)c2conc2C)C2CCC(Cl)CC2)c1)N1C[C@@H](C(F)(F)F)NC1=O` (stereo partly drawn) [Example 313, N-((1S)-1-(4-chlorocyclohexyl)-2-((4-((S)-2-methoxy-1-((S)-2-oxo-4-(trifluoromethyl)imidazolidin-1-yl)ethyl)pyridin-2-yl)amino)-2-oxoethyl)-3-methylisoxazole-4-carboxamide], with 109 nM; and `CCc1conc1C(=O)N[C@H](C(=O)Nc1cc([C@@H](COC)N2C[C@@H](C(F)(F)F)NC2=O)ccn1)C1CCC(Cl)CC1` (stereo partly drawn) [Example 314, N-((1S)-1-(4-chlorocyclohexyl)-2-((4-((S)-2-methoxy-1-((S)-2-oxo-4-(trifluoromethyl)imidazolidin-1-yl)ethyl)pyridin-2-yl)amino)-2-oxoethyl)-4-ethylisoxazole-3-carboxamide], with 58 nM.
As for `COC[C@H](c1ccnc(NC(=O)[C@@H](NC(=O)c2nonc2C)C2CCC(Cl)CC2)c1)N1C[C@@H](C(F)(F)F)NC1=O` (stereo partly drawn) [Example 315, N-((1S)-1-(4-chlorocyclohexyl)-2-((4-((S)-2-methoxy-1-((S)-2-oxo-4-(trifluoromethyl)imidazolidin-1-yl)ethyl)pyridin-2-yl)amino)-2-oxoethyl)-4-methyl-1,2,5-oxadiazole-3-carboxamide], the half-inhibitory concentration (IC50) was found to be 90 nM.
Then `CCc1nonc1C(=O)N[C@H](C(=O)Nc1cc([C@@H](COC)N2C[C@@H](C(F)(F)F)NC2=O)ccn1)C1CCC(Cl)CC1` (stereo partly drawn) [Example 316, N-((1S)-1-(4-chlorocyclohexyl)-2-((4-((S)-2-methoxy-1-((S)-2-oxo-4-(trifluoromethyl)imidazolidin-1-yl)ethyl)pyridin-2-yl)amino)-2-oxoethyl)-4-ethyl-1,2,5-oxadiazole-3-carboxamide], with 46 nM; and `CCc1nocc1C(=O)N[C@H](C(=O)Nc1cc([C@@H](COC)N2C[C@@H](C(F)(F)F)NC2=O)ccn1)C1CCC(Cl)CC1` (stereo partly drawn) [Example 317, N-((1S)-1-(4-chlorocyclohexyl)-2-((4-((S)-2-methoxy-1-((S)-2-oxo-4-(trifluoromethyl)imidazolidin-1-yl)ethyl)pyridin-2-yl)amino)-2-oxoethyl)-3-ethylisoxazole-4-carboxamide], with 19 nM; and `CCc1oncc1C(=O)N[C@H](C(=O)Nc1cc([C@@H](COC)N2C[C@@H](C(F)(F)F)NC2=O)ccn1)[C@@H]1C[C@H]2C[C@H]2C1` [Example 318, N—((S)-1-((1R,3s,5S)-bicyclo[3.1.0]hexan-3-yl)-2-((4-((S)-2-methoxy-1-((S)-2-oxo-4-(trifluoromethyl)imidazolidin-1-yl)ethyl)pyridin-2-yl)amino)-2-oxoethyl)-5-ethylisoxazole-4-carboxamide], with 64 nM.
With `COC[C@H](c1ccnc(NC(=O)[C@@H](NC(=O)c2cnoc2C(C)C)[C@@H]2C[C@H]3C[C@H]3C2)c1)N1C[C@@H](C(F)(F)F)NC1=O` [Example 319, N—((S)-1-((1R,3s,5S)-bicyclo[3.1.0]hexan-3-yl)-2-((4-((S)-2-methoxy-1-((S)-2-oxo-4-(trifluoromethyl)imidazolidin-1-yl)ethyl)pyridin-2-yl)amino)-2-oxoethyl)-5-isopropylisoxazole-4-carboxamide] the figure was 38 nM; with `CC(C)n1nccc1C(=O)N[C@H](C(=O)Nc1cc(O[C@H]2C[C@@H](C(F)(F)F)NC2=O)ccn1)[C@H]1CC[C@H](C)CC1` [Example 320, 1-isopropyl-N—((S)-1-((1r,4S)-4-methylcyclohexyl)-2-oxo-2-((4-(((3S,5S)-2-oxo-5-(trifluoromethyl)pyrrolidin-3-yl)oxy)pyridin-2-yl)amino)ethyl)-1H-pyrazole-5-carboxamide], 604 nM; with `CCc1nocc1C(=O)N[C@H](C(=O)Nc1cc(O[C@H]2C[C@@H](C(F)(F)F)NC2=O)ccn1)[C@H]1CC[C@H](C)CC1` [Example 321, 3-ethyl-N—((S)-1-((1r,4S)-4-methylcyclohexyl)-2-oxo-2-((4-(((3S,5S)-2-oxo-5-(trifluoromethyl)pyrrolidin-3-yl)oxy)pyridin-2-yl)amino)ethyl)isoxazole-4-carboxamide], 689 nM.
With `CCn1nccc1C(=O)N[C@H](C(=O)Nc1cc(O[C@H]2C[C@@H](C(F)(F)F)NC2=O)ccn1)[C@H]1CC[C@H](C)CC1` [Example 322, 1-ethyl-N—((S)-1-((1r,4S)-4-methylcyclohexyl)-2-oxo-2-((4-(((3S,5S)-2-oxo-5-(trifluoromethyl)pyrrolidin-3-yl)oxy)pyridin-2-yl)amino)ethyl)-1H-pyrazole-5-carboxamide] the figure was 821 nM.
